# From ChEMBL document CHEMBL1201862, “PubChem BioAssay data set” (2004)
#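 Compound exposure: 48 hours, 5 concentrations, 96-well plates. GI50 = concentration required for 50% inhibition of growth.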 Activity calls are given as the source filed them. Rule as the data show it: active = GI50 up to about 1.1 µM and inactive = higher.
# Assays:
# Assay in all cases: growth of human tumour cells (NCI), 48 h
# [1] = tested on: OVCAR-5
# [2] = tested on: NCI-H226
# [3] = tested on: OVCAR-3
# [4] = tested on: HCT-116
# [5] = tested on: A498
# [6] = tested on: HCT-15
# [7] = tested on: RPMI-8226
# [8] = tested on: SNB-75
# [9] = tested on: MDA-MB-435
# [10] = tested on: SK-MEL-5
# [11] = tested on: EKVX
# [12] = tested on: SF-295
# [13] = tested on: KM12
# [14] = tested on: NCI/ADR-RES
# [15] = tested on: M14
# [16] = tested on: OVCAR-8
# [17] = tested on: NCI-H23
# [18] = tested on: HL-60
# [19] = tested on: HT-29
Compound,GI50 [1],GI50 [2],GI50 [3],GI50 [4],GI50 [5],GI50 [6] [µM],GI50 [7],GI50 [8],GI50 [9],GI50 [10],GI50 [11],GI50 [12],GI50 [13],GI50 [14],GI50 [15],GI50 [16],GI50 [17],GI50 [18],GI50 [19]
Cc1cc2nc3c(C#N)c(-c4ccccc4)cc(Nc4ccc(Cl)cc4)n3c2cc1C,> 100 µM (inactive),> 100 µM (inactive),6.05 µM (inactive),> 100 µM (inactive),> 100 µM (inactive),> 100,5.6 µM (inactive),> 100 µM (inactive),> 100 µM (inactive),> 100 µM (inactive),8.22 µM (inactive),> 100 µM (inactive),59.4 µM (inactive),> 100 µM (inactive),> 100 µM (inactive),48.2 µM (inactive),> 100 µM (inactive),,
COc1ccccc1/N=C1\SCCN1C(=S)Nc1ccc(S(=O)(=O)/N=C/N(C)C)cc1,87.5 µM (inactive),> 100 µM (inactive),44 µM (inactive),41.7 µM (inactive),> 100 µM (inactive),31.6,21.6 µM (inactive),29.6 µM (inactive),24.9 µM (inactive),15.9 µM (inactive),20.9 µM (inactive),> 100 µM (inactive),> 100 µM (inactive),45 µM (inactive),51.5 µM (inactive),35.2 µM (inactive),27.1 µM (inactive),27.4 µM (inactive),
O=C(CC12C3C4C1C1C2C3C41CC(=O)NO)NO (stereo unspecified),> 100 µM (inactive),34 µM (inactive),34.3 µM (inactive),42.4 µM (inactive),28.8 µM (inactive),44.2,40.3 µM (inactive),29.6 µM (inactive),,27.4 µM (inactive),> 100 µM (inactive),27.1 µM (inactive),38.8 µM (inactive),,28.8 µM (inactive),33.1 µM (inactive),78.2 µM (inactive),36.9 µM (inactive),29.4 µM (inactive)
Nc1ccc2c(c1)C1Oc3ccccc3CC1CO2 (stereo unspecified),> 100 µM (inactive),> 100 µM (inactive),> 100 µM (inactive),> 100 µM (inactive),> 100 µM (inactive),15.7,> 100 µM (inactive),,> 100 µM (inactive),> 100 µM (inactive),> 100 µM (inactive),> 100 µM (inactive),> 100 µM (inactive),> 100 µM (inactive),> 100 µM (inactive),> 100 µM (inactive),> 100 µM (inactive),> 100 µM (inactive),> 100 µM (inactive)
CC12CCC(=O)N1c1ccc([N+](=O)[O-])cc1N2 (stereo unspecified),,42.3 µM (inactive),> 100 µM (inactive),> 100 µM (inactive),> 100 µM (inactive),> 100,> 100 µM (inactive),> 100 µM (inactive),,> 100 µM (inactive),> 100 µM (inactive),> 100 µM (inactive),> 100 µM (inactive),,> 100 µM (inactive),> 100 µM (inactive),> 100 µM (inactive),92.9 µM (inactive),> 100 µM (inactive)
O=C(CCN(CCO)CCO)Nc1ccc2c(c1)C(=O)c1ccc(NC(=O)CCN(CCO)CCO)cc1C2=O,> 100 µM (inactive),6.95 µM (inactive),16.1 µM (inactive),7.36 µM (inactive),9.86 µM (inactive),6.47,14.6 µM (inactive),30.8 µM (inactive),,17.2 µM (inactive),5.69 µM (inactive),> 100 µM (inactive),14.4 µM (inactive),,12.4 µM (inactive),14 µM (inactive),38.7 µM (inactive),9.59 µM (inactive),28.1 µM (inactive)
COC(=O)C(Cc1c[nH]c2ccccc12)NC(=O)C(Cc1c[nH]c2ccccc12)NC(=O)OCc1ccccc1 (stereo unspecified),17.6 µM (inactive),22.1 µM (inactive),15.5 µM (inactive),17.9 µM (inactive),72.8 µM (inactive),17.4,11.7 µM (inactive),21.6 µM (inactive),,29.5 µM (inactive),18.6 µM (inactive),17.9 µM (inactive),19.1 µM (inactive),,18.2 µM (inactive),17.9 µM (inactive),17.3 µM (inactive),20.8 µM (inactive),20 µM (inactive)
C=CC1=CC(C)C[C@]1(O)C(=O)OC (stereo partly specified),< 0.01 µM (active),< 0.01 µM (active),< 0.01 µM (active),< 0.01 µM (active),< 0.01 µM (active),> 100,< 0.01 µM (active),< 0.01 µM (active),,> 100 µM (inactive),< 0.01 µM (active),< 0.01 µM (active),< 0.01 µM (active),,< 0.01 µM (active),< 0.01 µM (active),< 0.01 µM (active),< 0.01 µM (active),< 0.01 µM (active)
COc1cc(O)c2c(c1)C(=O)C=C(Cl)C2=O,> 100 µM (inactive),28.2 µM (inactive),> 100 µM (inactive),66.4 µM (inactive),> 100 µM (inactive),> 100,> 100 µM (inactive),> 100 µM (inactive),,87.1 µM (inactive),> 100 µM (inactive),> 100 µM (inactive),> 100 µM (inactive),,> 100 µM (inactive),64.7 µM (inactive),> 100 µM (inactive),> 100 µM (inactive),> 100 µM (inactive)
CC(=O)/C=C/c1ccc(C2CC(C)=Nc3c(ccc4c3C(=O)c3ccccc3C4=O)N2)cc1 (stereo unspecified),> 86.5 µM (inactive),32.2 µM (inactive),> 93.8 µM (inactive),33 µM (inactive),33.3 µM (inactive),27.2,> 52.4 µM (inactive),14.8 µM (inactive),,86.5 µM (inactive),27.3 µM (inactive),> 100 µM (inactive),3.37 µM (inactive),,77.3 µM (inactive),28.2 µM (inactive),> 67.3 µM (inactive),0.944 µM (active),> 100 µM (inactive)
Cc1cc(N)c2cc(NC(=O)CCCCCCCCC(=O)Nc3ccc4nc(C)cc(N)c4c3)ccc2n1,> 56 µM (inactive),2.43 µM (inactive),98.6 µM (inactive),5.07 µM (inactive),29.5 µM (inactive),> 100,5.53 µM (inactive),32.9 µM (inactive),,5.58 µM (inactive),36.3 µM (inactive),43.2 µM (inactive),5.57 µM (inactive),,> 84.9 µM (inactive),> 100 µM (inactive),15.2 µM (inactive),1.54 µM (inactive),32.9 µM (inactive)
CN/N=C(\C)CC(=O)Nc1cccc(Cl)c1C,> 100 µM (inactive),> 100 µM (inactive),> 100 µM (inactive),> 100 µM (inactive),> 100 µM (inactive),> 100,> 100 µM (inactive),> 100 µM (inactive),,> 100 µM (inactive),> 100 µM (inactive),> 100 µM (inactive),> 100 µM (inactive),,> 100 µM (inactive),> 100 µM (inactive),> 100 µM (inactive),> 100 µM (inactive),> 100 µM (inactive)
COc1ccc(C(=O)C(C(=O)CCC(=O)Nc2ccc(Cl)c(Cl)c2)c2ccc(OC)cc2)cc1 (stereo unspecified),> 100 µM (inactive),> 100 µM (inactive),> 100 µM (inactive),> 100 µM (inactive),> 100 µM (inactive),> 100,> 100 µM (inactive),44.9 µM (inactive),,> 100 µM (inactive),> 100 µM (inactive),> 100 µM (inactive),> 100 µM (inactive),,> 100 µM (inactive),> 100 µM (inactive),> 100 µM (inactive),97.1 µM (inactive),> 100 µM (inactive)
Cc1ccccc1NC(=O)C(=O)c1c(O)c2ccc(O)cc2oc1=O,,> 100 µM (inactive),> 100 µM (inactive),> 100 µM (inactive),> 100 µM (inactive),> 100,> 100 µM (inactive),> 100 µM (inactive),,> 100 µM (inactive),,,> 100 µM (inactive),,> 100 µM (inactive),> 100 µM (inactive),> 100 µM (inactive),> 100 µM (inactive),> 100 µM (inactive)
CCC(C)CCOC(=O)c1ccc(/N=C\c2ccc(/C=N/c3ccc(C(=O)OCCC(C)CC)cc3)cc2)cc1 (stereo unspecified),> 100 µM (inactive),> 100 µM (inactive),> 100 µM (inactive),> 100 µM (inactive),> 100 µM (inactive),> 100,> 100 µM (inactive),> 100 µM (inactive),,> 100 µM (inactive),62.2 µM (inactive),> 100 µM (inactive),,,> 100 µM (inactive),> 100 µM (inactive),> 100 µM (inactive),> 100 µM (inactive),> 100 µM (inactive)
C[C@@H](NC(=O)OC1C=CC2(CC1)C(=O)N(C)c1ccccc12)c1cccc2ccccc12 (stereo partly specified),> 25 µM (inactive),21.8 µM (inactive),> 25 µM (inactive),4.56 µM (inactive),> 25 µM (inactive),14.9,8.79 µM (inactive),21.5 µM (inactive),9.57 µM (inactive),5.32 µM (inactive),12 µM (inactive),12.7 µM (inactive),11.6 µM (inactive),11.7 µM (inactive),14.4 µM (inactive),> 25 µM (inactive),12.2 µM (inactive),0.944 µM (active),> 25 µM (inactive)
